# Experimental data: patent publication US9695155B2, “Herbicidal substituted pyrimidinyloxy benzene compounds” (E. I. DU PONT DE NEMOURS AND COMPANY, priority 2013, dated 2017)
# Legend:
# [1] = system: barnyardgrass; assay: Test A preemergence; assay type: in vivo, Echinochloa crus-galli; details: 0 to 100 scale where 0 is no effect and 100 is complete control; for Barnyardgrass plant response rating: 500 g ai/ha
# Procedure, shortened: (§1)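 Scoring: eye-based comparison with untreated controls, 0 for no effect through 100 for complete control, at about day 10. Treatments: directed soil spray preemergence; foliar spray postemergence on 2–10 cm plants at the one- to two-leaf stage. Medium: loam soil with sand.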
# [2] = system: kochia; assay: Test A preemergence; assay type: in vivo, Kochia scoparia; details: 0 to 100 scale where 0 is no effect and 100 is complete control; for Kochia plant response rating: 500 g ai/ha
# Procedure, shortened: as §1
# [3] = system: ragweed; assay: Test A preemergence; assay type: in vivo, Ambrosia elatior; details: 0 to 100 scale where 0 is no effect and 100 is complete control; for Ragweed plant response rating: 500 g ai/ha
# Procedure, shortened: as §1
# [4] = system: Italian ryegrass; assay: Test A preemergence; assay type: in vivo, Lolium multiflorum; details: 0 to 100 scale where 0 is no effect and 100 is complete control; for Ryegrass, Italian plant response rating: 500 g ai/ha
# Procedure, shortened: as §1
# [5] = system: giant foxtail; assay: Test A preemergence; assay type: in vivo, Setaria faberii; details: 0 to 100 scale where 0 is no effect and 100 is complete control; for Foxtail, Giant plant response rating: 500 g ai/ha
# Procedure, shortened: as §1
# [6] = system: pigweed; assay: Test A preemergence; assay type: in vivo, Amaranthus retroflexus; details: 0 to 100 scale where 0 is no effect and 100 is complete control; for Pigweed plant response rating: 500 g ai/ha
# Procedure, shortened: as §1
# [7] = system: barnyardgrass; assay: Test A postemergence; assay type: in vivo, Echinochloa crus-galli; details: for Barnyardgrass plant response rating: 125 g ai/ha
# Procedure, shortened: as §1
# [8] = system: kochia; assay: Test A postemergence; assay type: in vivo, Kochia scoparia; details: for Kochia plant response rating: 125 g ai/ha
# Procedure, shortened: as §1
# [9] = system: ragweed; assay: Test A postemergence; assay type: in vivo, Ambrosia elatior; details: for Ragweed plant response rating: 125 g ai/ha
# Procedure, shortened: as §1
# [10] = system: Italian ryegrass; assay: Test A postemergence; assay type: in vivo, Lolium multiflorum; details: for Ryegrass, Italian plant response rating: 125 g ai/ha
# Procedure, shortened: as §1
# [11] = system: giant foxtail; assay: Test A postemergence; assay type: in vivo, Setaria faberii; details: for Foxtail, Giant plant response rating: 125 g ai/ha
# Procedure, shortened: as §1
# [12] = system: pigweed; assay: Test A postemergence; assay type: in vivo, Amaranthus retroflexus; details: for Pigweed plant response rating: 125 g ai/ha
# Procedure, shortened: as §1
# [13] = system: wheat; assay: Test A postemergence; assay type: in vivo, Triticum aestivum; details: for Wheat plant response rating: 125 g ai/ha
# Procedure, shortened: as §1
# [14] = system: corn; assay: Test A postemergence; assay type: in vivo, Zea mays; details: for Corn plant response rating: 125 g ai/ha
# Procedure, shortened: as §1
# [15] = system: blackgrass; assay: Test A postemergence; assay type: in vivo, Alopecurus myosuroides; details: for Blackgrass plant response rating: 125 g ai/ha
# Procedure, shortened: as §1
# [16] = system: galium; assay: Test A postemergence; assay type: in vivo, Galium aparine; details: for Galium plant response rating: 125 g ai/ha
# Procedure, shortened: as §1
# [17] = system: rice; assay: Test B flooded paddy test; assay type: in vivo, Oryza sativa; details: Flood, 250 g ai/ha; 0 to 100 scale where 0 is no effect and 100 is complete control
# Procedure, shortened: (§2)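 Seedlings are raised to two leaves, flooded to a depth of 3 cm and dosed by adding the compound to the floodwater. Water level is kept constant, and plants are scored visually versus controls 13–15 days later (0 = no effect, 100 = complete control).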
# [18] = system: sedge, umbrella; assay: Test B flooded paddy test; assay type: in vivo, Cyperus difformis; details: Flood, 250 g ai/ha; 0 to 100 scale where 0 is no effect and 100 is complete control
# Procedure, shortened: as §2
# [19] = system: Heteranthera limosa; assay: Test B flooded paddy test; assay type: in vivo; details: Flood, 250 g ai/ha; 0 to 100 scale where 0 is no effect and 100 is complete control
# Procedure, shortened: as §2
# [20] = system: barnyardgrass; assay: Test B flooded paddy test; assay type: in vivo, Echinochloa crus-galli; details: Flood, 250 g ai/ha; 0 to 100 scale where 0 is no effect and 100 is complete control
# Procedure, shortened: as §2
# [21] = 0 to 100 scale where 0 is no effect and 100 is complete control
# [22] = 500 g ai/ha, 0 to 100 scale where 0 is no effect and 100 is complete control
# [23] = 31 g ai/ha, visual, approximately 10 days
# [24] = 31 g ai/ha, 0 to 100 scale, 0 no effect, 100 complete control
SMILES,"Plant response rating, Barnyardgrass ([1]; 125 g ai/ha)","Plant response rating, Kochia ([2]; 125 g ai/ha)","Plant response rating, Ragweed ([3]; 125 g ai/ha)","Plant response rating, Ryegrass, Italian ([4]; 125 g ai/ha)","Plant response rating, Foxtail, Giant ([5]; 125 g ai/ha)","Plant response rating, Pigweed ([6]; 125 g ai/ha)","Barnyardgrass plant response rating [7, 21]","Kochia plant response rating [8, 21]","Ragweed plant response rating [9, 21]","Ryegrass, Italian plant response rating [10, 21]","Foxtail, Giant plant response rating [11, 21]","Pigweed plant response rating [12, 21]","Wheat plant response rating [13, 21]","Corn plant response rating [14, 21]","Blackgrass plant response rating [15, 21]","Galium plant response rating [16, 21]","Plant response rating, Rice [17]","Plant response rating, Sedge, Umbrella [18]","Plant response rating, Ducksalad [19]","Plant response rating, Barnyardgrass [20]",also measured
CCCc1cnc(Oc2cccc(C#N)c2-n2cc(Br)cn2)nc1 [Compound 131],0,0,0,0,0,0,0,0,0,0,0,0,0,0,0,0,0,0,0,0,"Barnyardgrass plant response rating [1]: 0; Kochia plant response rating [2]: 0; Ragweed plant response rating [3]: 0; Ryegrass, Italian plant response rating [4]: 0; Foxtail, Giant plant response rating [5]: 0; Pigweed plant response rating [6]: 0; Plant response rating, Barnyardgrass [7, 22]: 0; Plant response rating, Kochia [8, 22]: 0; Plant response rating, Ragweed [9, 22]: 0; Plant response rating, Ryegrass, Italian [10, 22]: 0; Plant response rating, Foxtail, Giant [11, 22]: 0; Plant response rating, Pigweed [12, 22]: 0; Plant response rating, Wheat [13, 22]: 0; Plant response rating, Corn [14, 22]: 0; Plant response rating, Blackgrass [15, 22]: 0; Plant response rating, Galium [16, 22]: 0"
CC(C)Oc1cnn(-c2c(Br)cccc2Oc2ncc(F)cn2)c1 [Compound 156],30,10,0,0,70,0,10,40,40,0,10,20,0,10,20,30,0,0,0,0,"Plant response rating, Barnyardgrass [1, 23]: 0; Plant response rating, Kochia [2, 23]: 0; Plant response rating, Ragweed [3, 23]: 0; Plant response rating, Ryegrass, Italian [4, 23]: 0; Plant response rating, Foxtail, Giant [5, 23]: 0; Plant response rating, Pigweed [6, 23]: 0; Plant response rating, Barnyardgrass [7, 24]: 0; Plant response rating, Kochia [8, 24]: 0; Plant response rating, Ragweed [9, 24]: 0; Plant response rating, Ryegrass, Italian [10, 24]: 0; Plant response rating, Foxtail, Giant [11, 24]: 0; Plant response rating, Pigweed [12, 24]: 10; Plant response rating, Wheat [13, 24]: 0; Plant response rating, Corn [14, 24]: 0; Plant response rating, Blackgrass [15, 24]: 0; Plant response rating, Galium [16, 24]: 20"
CS(=O)(=O)c1cccc(Oc2ncc(Cl)cn2)c1-n1cc(Br)cn1 [Compound 142],0,0,0,0,0,0,0,0,0,0,0,0,0,0,0,0,0,0,0,0,"Barnyardgrass plant response rating [1]: 0; Kochia plant response rating [2]: 50; Ragweed plant response rating [3]: 20; Ryegrass, Italian plant response rating [4]: 0; Foxtail, Giant plant response rating [5]: 0; Pigweed plant response rating [6]: 0; Plant response rating, Barnyardgrass [7, 22]: 0; Plant response rating, Kochia [8, 22]: 70; Plant response rating, Ragweed [9, 22]: 0; Plant response rating, Ryegrass, Italian [10, 22]: 0; Plant response rating, Foxtail, Giant [11, 22]: 0; Plant response rating, Pigweed [12, 22]: 0; Plant response rating, Wheat [13, 22]: 0; Plant response rating, Corn [14, 22]: 0; Plant response rating, Blackgrass [15, 22]: 0; Plant response rating, Galium [16, 22]: 0"
